These are literature values, as cited in PMC2885594 (Current Chemical Genomics, 2010).

The structures appear in SMILES notation.

The subject of the series is TPH1. As to conditions: ref [30].

Consider `N[C@@H](Cc1c[nH]c2ccc(O)cc12)C(=O)O` [5-HTP], for which the “mechanism of inhibition versus phenylalanine” value was “competitive” and the “mechanism of inhibition versus pterin” value is listed as “uncompetitive”.
